Data taken from PubChem BioAssay (NCI).
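Protocol summary: plate cells (96-well), add compound at 5 concentrations, incubate 48 h, interpolate endpoints linearly. GI50 is the concentration that inhibits growth by half. Definition used: TGI = concentration required for complete inhibition of growth.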

What was measured:
Assay in all cases: growth of human tumour cells (NCI), 48 h
[1] = tested on: A549 NSCLC
[2] = tested on: CCRF-CEM leukemia
[3] = tested on: DU-145 prostate
[4] = tested on: HCT-116 colon
[5] = tested on: HT29 colon
[6] = tested on: OVCAR-5 ovarian
[7] = tested on: OVCAR-8 ovarian
[8] = tested on: SK-MEL-2 melanoma
[9] = tested on: SW-620 colon
[10] = tested on: UACC-62 melanoma

| SMILES | GI50 [1] | TGI [1] | GI50 [2] | TGI [2] | GI50 [3] | TGI [3] | GI50 [4] | TGI [4] | GI50 [5] | TGI [5] | GI50 [6] | TGI [6] | GI50 [7] | TGI [7] | GI50 [8] | TGI [8] | GI50 [9] | TGI [9] | GI50 [10] | TGI [10] |
| --- | --- | --- | --- | --- | --- | --- | --- | --- | --- | --- | --- | --- | --- | --- | --- | --- | --- | --- | --- | --- |
| COc1cc(C2C3=C(COC3=O)Nc3c2ccc2c3CCCC2)cc2c1OCO2 (configuration not stated) | 0.0444 µM | > 89.3 µM | 0.0367 µM | > 100 µM | 0.0416 µM | 0.505 µM | 0.039 µM | 3.29 µM | 0.0357 µM | 3.97 µM | 0.0897 µM | > 100 µM | 0.045 µM | 20.2 µM | 0.068 µM | 27.4 µM | 0.0399 µM | > 100 µM | 0.0462 µM | > 100 µM |
| COc1cccc2c1C(=O)c1c(O)c3c(c(O)c1C2=O)C[C@@](O)(C(=O)CO)CC3OC1CC(O)C(O)C(C)O1 (some centres not stated) |  | 3.99 µM |  | > 35.4 µM |  | 0.176 µM |  | 0.572 µM |  | 4.25 µM |  | 3.66 µM |  | 9.78 µM |  | 1.58 µM |  | 17.3 µM |  | 0.492 µM |
| NCCOc1ccccc1/C=C1\c2ccccc2-c2ccc([N+](=O)[O-])cc21 |  |  | 1.08 µM | 2.54 µM | 1.03 µM | 2.21 µM | 1.25 µM | 2.51 µM | 1.42 µM | 2.84 µM | 1.61 µM | 3.06 µM | 1.53 µM | 3.33 µM | 1.8 µM | 3.34 µM | 1.09 µM | 2.43 µM | 1.54 µM | 2.92 µM |
| O=c1c(NO)c([N+](=O)[O-])cnn1-c1ccccc1 |  | 36.2 µM |  | 2.8 µM |  | 27.6 µM |  | 6.25 µM |  | 6.14 µM |  | 14 µM |  | 7.48 µM |  | 31.4 µM |  | 3.73 µM |  | 10.8 µM |
| CCN(CC)CCN(Cc1ccc(F)cc1)c1ccc(CO)c(Cl)c1 | 2.42 µM | 12.8 µM | 61.7 µM | > 100 µM | 9.97 µM | > 73.8 µM | 3.55 µM | > 50.1 µM | 18.6 µM | 69.4 µM | 3.25 µM | 12.4 µM | 5.37 µM | 75.4 µM | 21.2 µM | 44.4 µM | 31.5 µM | > 100 µM | 6.07 µM | 20.8 µM |
| CCCCNC(=O)Oc1ccc(/C(=C(/C)Cc2ccc(OC)cc2)c2ccc(OCCN3CCCC3)cc2)cc1 | 1.95 µM | 3.8 µM | 2.57 µM | 7.41 µM | 2.29 µM | 5.44 µM | 1.55 µM | 2.98 µM | 1.89 µM | 3.85 µM | 3.6 µM | 12.7 µM | 2.04 µM | 4.38 µM | 2.13 µM | 4.23 µM | 1.78 µM | 3.36 µM | 1.94 µM | 3.59 µM |
| COc1c(-c2ccc(O)c(O)c2)oc2c(O)c(O)cc(O)c2c1=O |  | > 100 µM |  | 97.7 µM |  | > 100 µM |  | > 100 µM |  | 39.8 µM |  | > 100 µM |  | > 100 µM |  | > 100 µM |  | 43.9 µM |  | > 100 µM |
| O=C1C(=O)c2ccccc2C(O)=C1CCCc1ccc(C2CCCCCC2)cc1 | 0.664 µM | 17.4 µM | 1.16 µM | > 100 µM | 0.72 µM | 34.3 µM | 0.426 µM | 13.3 µM | 4.6 µM | 27.8 µM | 19.8 µM | > 100 µM | 1.62 µM | 41.7 µM | 1.12 µM | 21.4 µM | 0.576 µM | 33.2 µM | 0.718 µM | 21.2 µM |
| Cc1ccc(C2=C(c3ccccc3)C(c3ccccc3)Oc3ccc(C)cc32)cc1 (configuration not stated) | 3.87 µM | 10.7 µM | 13.8 µM | 39 µM | 3.56 µM | 12.5 µM | 1.68 µM | 3.43 µM |  |  | 2.87 µM | 8.64 µM | 6.92 µM | 26.7 µM | 1.9 µM | 3.98 µM | 3.79 µM | 13.2 µM | 10 µM | 22.8 µM |
| O=[n+]1c2ccccc2n([O-])c2cc(Cl)ccc21 | 3.17 µM | 22.9 µM | 0.533 µM | 5 µM | 11.3 µM | 24.1 µM | 3.37 µM | 12.7 µM | 3.6 µM | 13.5 µM | 15.7 µM | 33.5 µM | 3.5 µM | 15.4 µM |  |  | 3.73 µM | 18.7 µM | 6.17 µM | 23.8 µM |
| CCCCN(CCCC)CCC(O)c1cc2c(Cl)cc(Cl)cc2c2cc(C(F)(F)F)ccc12 (configuration not stated) |  |  |  | 29 µM |  | 22 µM |  | 25.2 µM |  | 34.9 µM |  | 26 µM |  | 27.5 µM |  | 30.2 µM |  | 25.7 µM |  | 29.9 µM |
| CC(C)CC(Nc1c(O)ccc2ccccc12)C(=O)O (configuration not stated) |  | > 100 µM |  | > 100 µM |  | > 100 µM |  | > 100 µM |  | > 100 µM |  | > 100 µM |  |  |  | 42.5 µM |  | > 100 µM |  | 72.3 µM |
